Results on two compounds are retold here after patent publication US9073880B2, “2-(2-phenylethenyl) 1,3-benzodiazepine derivatives useful for the treatment of cancer” (Yissum Research Development Company of the Hebrew …, priority 2010, dated 2015).

Each structure is given as a SMILES string.

Assay [1] concerns Human ovary cancer A2780 cells. Briefly: Cell proliferation, A2780 (Example 2). In kind it is cell-based. To be noted: 72 hours, 0.1% DMSO, methylene blue. As to the method:
(§1) Human ovary cancer A2780 cells lines were seeded at a density of 5000 cells/well, human melanoma A375 cells were plated at a density of 2,500 cells/well, human colon carcinoma HCT15 cells were plated at a density of 3,000 cells/well, human prostate carcinoma PC3 cells were plated at a density of 1,500 cells/well, human breast carcinoma MCF7 cells were plated at a density of 5,000 cells/well, human breast carcinoma MDA MB 468 cells were plated at a density of 6,000 cells/well, human myeloma U266, RPMI8226 and CAG cells were plated at a density of 10,000 cells/well. All cells were plated in 96-well plates in 90 μl growth medium containing 10% FCS, 100 units/ml penicillin and 100 μg/ml streptomycin. Compound 3 was added a day later in […] of 1% DMSO in DDW to obtain final concentrations of 0, 0.1, 0.3, 1, 3, and 10 μM. The final concentration of DMSO (0.1% DMSO) was kept constant in all samples. […] The optical density values were read at 630 nm in ELISA plate reader. Non-adhered cells were exposed to WST-1 reagent for 5 hours following 72 hours treatment with the inhibitors, and optical density values were read at 630 nm in ELISA plate reader. The data was analyzed in Microsoft Excel, using the vehicle control as 100% proliferation. […]

The test system of a further assay is human myeloma U266 cells. Briefly: Cell proliferation, U266 (Example 2). In kind it is cell-based. To be noted: U-266, U266, multiple myeloma, 72 hours, 0.1% DMSO, WST-1. As to the method:
as §1
A general note: Formazan colour is commonly taken as a measure of viable cells.

In assay [2] the test system is human myeloma RPMI8226 cells. The assay is described as follows: Cell proliferation, RPMI8226 (Example 2). In kind it is cell-based. To be noted: RPMI-8226, RPMI8226, multiple myeloma, 72 hours, 0.1% DMSO, WST-1. The method, then:
as §1

A further assay concerns the target T1, IGF-1R (Homo sapiens, UniProt P08069).
T1 construct: endogenous in cells; host or cells: MCF7 human breast cancer cells
The assay is described as follows: IGF1-induced IGF-1R auto-phosphorylation in MCF7 cells (western blot). In kind it is cell-based. To be noted: 10 μM, FIG. 3. The method, then: Tyrosine autophosphorylation of the β-subunit of IGF-1R as well as downstream signaling induced by IGF-1R were assayed in human breast cancer MCF7 cells and in melanoma A375 cells. Cells were seeded in 6-well plates (250,000 A375 cells/well and 300,000 MCF7 cells/well) and 24 hours later medium was replaced by serum-free medium (RPMI supplemented with 100 units/ml penicillin and 100 μg/ml streptomycin). MCF7 cells were exposed for 48 hr to compound 3 at 10 μM concentration, and then stimulated for 5 minutes with 50 ng/ml IGF-1, washed twice with PBS and lysed by boiling sample buffer (10% glycerol, 50 mM Tris-HCl, pH 6.8, 3% SDS, and 5% (3-mercaptoethanol). Equal amounts of protein per lane were separated by 8% SDS-PAGE and transferred to a nitrocellulose membrane (Sartorius AG). Phosphorylated proteins were immunoblotted with anti-phosphoIGF-1R (pIGF-1R), anti-phosphotyrosine-IRS1 (pY-IRS I) and anti-phospho(T308)Akt (pPKB) antibodies. Detection was performed with horseradish peroxidase-conjugated secondary antibody using the ECL system. Blots were then stripped of antibodies, blocked with TBST with 5% low fat milk and re-probed with antibodies detecting both the phosphorylated and the non-phosphorylated corresponding proteins e.g. IGF-1Rβ, IRS1 and PKB.
In general terms: Immunoblotting shows a protein as a band on a membrane.

Assay [3] concerns human ovary A2780 tumor cells. The assay is described as follows: Survival of nude mice bearing intraperitoneal human ovarian A2780 tumors. In kind it is in vivo. To be noted: for median survival time: IV, control 28 days. The method, then:
In order to determine the effect of the compounds of the present invention on the growth and spread of tumors in-vivo, the compounds were administered to nude mice bearing human ovarian cancer. […] A model of peritoneal carcinomatosis formation, involving intraperitoneal administration of human ovary A2780 tumor cells, was used.
Two million human ovarian A2780 cells were injected to the peritoneum of 4-5 weeks old female nude mice. A week later, treatments with compound 3 or vehicle were initiated. Compound 3 was administered IV, daily at a dose of 3 mg/kg or weekly at a dose of 12 mg/kg for the time periods indicated in FIG. 7. The control group was weekly administered (IV) with the vehicle (20% 2-hydroxypropyl-b-cyclodextrin). Each group included 10 mice.

The test system of another assay is IRS1 & IRS2. Briefly: IRS1 and IRS2 levels in A375 cells (Example 5). It counts as cell-based, human. The method, then: The effect of compound 5 on IRS1 & IRS2 levels and its effect on IGF1-induced Akt/PKB activation and apoptosis in melanoma A375 cells were tested. Cells were seeded in 6-well plates (150,000 A375 cells/well) and 24 hours later medium was replaced by serum-free medium (RPMI supplemented with 100 units/ml penicillin and 100 μg/ml streptomycin), […], and then stimulated for 5 minutes with 50 ng/ml IGF-1, washed twice with PBS and lysed by boiling sample buffer (10% glycerol, 50 mM Tris-HCl, pH 6.8, 3% SDS, and 5% β-mercaptoethanol). Equal amounts of protein per lane were separated by 8% SDS-PAGE and transferred to a nitrocellulose membrane (Sartorius AG). To detect the inhibition of the Akt/PKB activation, phosphorylated proteins were immunoblotted with anti-phospho(T308)Akt (pT308-PKB) and anti-phospho-Tuberin/TSC2 (pTuberin) antibodies. To visualize cell death induced by compound 5, the intact and the cleaved PARP were immunoblotted with anti-PARP antibody. The changes in the levels of IRS1 and IRS2 were detected with specific antibodies. Detection was performed with horseradish peroxidase-conjugated secondary antibody using the ECL system. Blots were then stripped of antibodies, blocked with TBST with 5% low fat milk and re-probed with antibodies detecting both the phosphorylated and the non-phosphorylated Akt/PKB. […]

T1 sequence (P08069 31-1367): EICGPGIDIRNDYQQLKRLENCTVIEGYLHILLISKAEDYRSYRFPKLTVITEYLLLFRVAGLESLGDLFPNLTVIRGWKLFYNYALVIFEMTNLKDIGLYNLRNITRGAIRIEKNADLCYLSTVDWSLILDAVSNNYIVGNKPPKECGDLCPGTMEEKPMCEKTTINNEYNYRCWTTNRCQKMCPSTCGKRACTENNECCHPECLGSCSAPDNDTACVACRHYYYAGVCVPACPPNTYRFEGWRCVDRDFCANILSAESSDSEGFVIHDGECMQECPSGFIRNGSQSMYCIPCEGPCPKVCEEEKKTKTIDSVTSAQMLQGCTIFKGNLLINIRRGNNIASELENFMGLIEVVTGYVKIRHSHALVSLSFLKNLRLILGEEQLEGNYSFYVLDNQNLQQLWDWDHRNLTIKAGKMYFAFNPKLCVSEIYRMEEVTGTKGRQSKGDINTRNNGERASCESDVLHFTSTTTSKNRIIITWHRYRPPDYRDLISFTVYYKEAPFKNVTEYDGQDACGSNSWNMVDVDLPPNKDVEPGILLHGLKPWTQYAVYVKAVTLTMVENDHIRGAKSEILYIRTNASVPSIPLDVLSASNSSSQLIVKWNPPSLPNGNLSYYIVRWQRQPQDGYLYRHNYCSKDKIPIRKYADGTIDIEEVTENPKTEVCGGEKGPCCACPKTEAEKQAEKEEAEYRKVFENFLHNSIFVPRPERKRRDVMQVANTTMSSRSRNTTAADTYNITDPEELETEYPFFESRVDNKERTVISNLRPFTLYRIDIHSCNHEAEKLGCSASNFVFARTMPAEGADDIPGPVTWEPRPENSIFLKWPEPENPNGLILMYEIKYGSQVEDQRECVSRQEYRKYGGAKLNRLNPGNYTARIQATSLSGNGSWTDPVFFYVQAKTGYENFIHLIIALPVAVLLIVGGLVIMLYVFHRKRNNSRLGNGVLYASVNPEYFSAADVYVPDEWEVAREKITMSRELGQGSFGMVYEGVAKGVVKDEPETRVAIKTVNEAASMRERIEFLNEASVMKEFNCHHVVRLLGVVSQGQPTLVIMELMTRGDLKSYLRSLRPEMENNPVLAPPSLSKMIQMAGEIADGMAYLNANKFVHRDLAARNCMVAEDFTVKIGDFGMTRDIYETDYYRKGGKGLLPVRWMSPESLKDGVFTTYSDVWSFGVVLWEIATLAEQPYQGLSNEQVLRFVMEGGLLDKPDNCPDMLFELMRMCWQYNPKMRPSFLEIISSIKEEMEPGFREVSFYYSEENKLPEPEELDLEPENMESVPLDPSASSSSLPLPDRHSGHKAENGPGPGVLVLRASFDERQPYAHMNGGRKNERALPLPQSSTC

A word on the IC50: it is the point on the concentration scale where inhibition reaches its midpoint. Higher therefore signals lower potency. As for `O=c1c(O)cc2cnc(/C=C/c3cc(O)c(O)c(Br)c3)sc-2c1O` [Compound 3], the IC50 in assay [1] was 300 nM; in the assay on human myeloma U266 cells, 700 nM; in assay [2], 2000 nM. For the same compound, at IGF-1R (48 hr, 50 ng/ml IGF-1 5 minutes), the “IGF1-induced auto-phosphorylation of IGF-1R” value is “significantly inhibited”. The “duration of the inhibitory effect” value on IGF-1R was “more than 48 hr”. In addition, the “median survival time compared to Cisplatin and Sunitinib” value in assay [3] (50 mg/kg daily IV vs Cisplatin 3 mg/kg ip 3 times a week for two weeks and Sunitinib 40 mg/kg daily PO, data not shown) is “preferable median survival time”. Further, the median survival time result was “over 81 days” in assay [3] (daily, 3 mg/kg, FIG. 7) and “over 81 days” in assay [3] (weekly, 12 mg/kg, FIG. 7). Besides, the “survival compared to control mice” value in assay [3] (intravenous treatment, 3 mg/kg daily or 12 mg/kg weekly, FIG. 7) is “dramatically increased survival”.

`O=c1c(O)cc2cnc(/C=C/c3ccc(O)c(O)c3Br)sc-2c1O` [Compound 5]: the “IRS1 and IRS2 levels” value with IRS1 & IRS2 (3 μM, 48 hr, FIG. 6B) is “induced a decrease in IRS1 and IRS2 levels”. Moreover, the “levels of IRS1 & IRS2 after washout” value in the assay with IRS1 & IRS2 (5 μM for 4 hr, washed, 24 hr after washout, FIG. 6C) is reported as “remained low”.
